Experimental data as given in ChEMBL document CHEMBL1127131, “Penems containing amino acid derived substituents at C-2” (1993).
In brackets after ≈: the same amount, converted by molar mass.

Tests used:
Bacillus subtilis = test: Minimum inhibitory concentration required for antibacterial activity against Bacillus subtilis; format: functional
Escherichia coli = test: Minimum inhibitory concentration required for antibacterial activity against Escherichia coli; format: functional
Enterobacter = test: Minimum inhibitory concentration required for antibacterial activity against Enterobacter; format: functional
Klebsiella = test: Minimum inhibitory concentration required for antibacterial activity against Klebsiella; format: functional
Providencia = test: Minimum inhibitory concentration required for antibacterial activity against Providencia; format: functional
Salmonella = test: Minimum inhibitory concentration required for antibacterial activity against Salmonella; format: functional
Micrococcus luteus = test: Minimum inhibitory concentration required for antibacterial activity against Sarcina luteus; format: functional, sarcinea luteus
Serratia [1] = test: Minimum inhibitory concentration required for antibacterial activity against Serratia; format: functional
Staphylococcus = test: Minimum inhibitory concentration required for antibacterial activity against Staphylococcus; format: functional
Enterococcus faecalis = test: Minimum inhibitory required for antibacterial activity against Streptococcus faecalis; format: functional
[2] = Gram-positive geometric mean MIC of antibacterial activity; format: functional
[3] = Gram-negative geometric mean MIC of antibacterial activity; format: functional
Serratia [4] = test: Minimum inhibitory concentration for antibacterial activity against Serratia; format: functional
[5] = Gram-positive geometric mean MIC for antibacterial activity (ug/mL); format: functional
Morganella = test: Minimum inhibitory concentration required for antibacterial activity against Morganella; format: functional
[6] = Gram-positive vitro for its antibacterial activity of Geometric Mean MIC (ug/mL); format: functional

Row | Structure (SMILES) | MIC (Bacillus subtilis) | MIC (Escherichia coli) | MIC (Enterobacter) | MIC (Klebsiella) | MIC (Providencia) | MIC (Salmonella) | MIC (Micrococcus luteus) | MIC (Serratia [1]) | MIC (Staphylococcus) | MIC (Enterococcus faecalis) | MIC [2] | MIC [3] | MIC (Serratia [4]) | MIC [5] | MIC (Morganella) | MIC [6]
1 | C[C@@H](O)[C@H]1C(=O)N2C(C(=O)O)=C(SC[C@@H](N)C(=O)O)S[C@H]12 | 0.5 µg/mL (≈ 1.5 µM) | 0.25 µg/mL (≈ 0.748 µM) | 0.76 µg/mL (≈ 2.27 µM) | 0.17 µg/mL (≈ 0.508 µM) | 5.66 µg/mL (≈ 16.9 µM) | 0.16 µg/mL (≈ 0.479 µM) | 4 µg/mL (≈ 12 µM) | 1.08 µg/mL (≈ 3.23 µM) | 1.82 µg/mL (≈ 5.44 µM) | 45.2 µg/mL (≈ 135 µM) | 3.01 µg/mL | 0.49 µg/mL | – | – | – | –
2 | C[C@@H](O)[C@H]1C(=O)N2C(C(=O)O)=C(CSC[C@H](N)C(=O)O)S[C@H]12 | 0.5 µg/mL (≈ 1.44 µM) | 4 µg/mL (≈ 11.5 µM) | 10.1 µg/mL (≈ 28.9 µM) | 4.93 µg/mL (≈ 14.2 µM) | 13.9 µg/mL (≈ 40 µM) | 3.18 µg/mL (≈ 9.13 µM) | 0.5 µg/mL (≈ 1.44 µM) | – | 0.707 µg/mL (≈ 2.03 µM) | 22.6 µg/mL (≈ 65 µM) | – | 6.4 µg/mL | 19 µg/mL (≈ 54.6 µM) | 0.94 µg/mL (≈ 2.7 µM) | 8 µg/mL (≈ 23 µM) | –
3 | CSCC[C@H](N)C1=C(C(=O)O)N2C(=O)[C@H]([C@@H](C)O)[C@H]2S1 | 4 µg/mL (≈ 12.6 µM) | 11.7 µg/mL (≈ 36.7 µM) | 20.2 µg/mL (≈ 63.3 µM) | 12.1 µg/mL (≈ 38.1 µM) | 55.7 µg/mL (≈ 175 µM) | 10.1 µg/mL (≈ 31.7 µM) | 0.031 µg/mL (≈ 0.0974 µM) | 38.1 µg/mL (≈ 120 µM) | 0.214 µg/mL (≈ 0.672 µM) | 64 µg/mL (≈ 201 µM) | – | 17.6 µg/mL | – | 0.37 µg/mL (≈ 1.16 µM) | 64.1 µg/mL (≈ 201 µM) | –
4 | C[C@H](N)C1=C(C(=O)O)N2C(=O)[C@H]([C@@H](C)O)[C@H]2S1 | 1 µg/mL (≈ 3.87 µM) | 21.9 µg/mL (≈ 84.9 µM) | 20.2 µg/mL (≈ 78 µM) | 17.1 µg/mL (≈ 66.4 µM) | 64 µg/mL (≈ 248 µM) | 10.1 µg/mL (≈ 39 µM) | 0.5 µg/mL (≈ 1.94 µM) | 45.3 µg/mL (≈ 175 µM) | 0.26 µg/mL (≈ 1.01 µM) | 64 µg/mL (≈ 248 µM) | – | 24.6 µg/mL | – | 0.47 µg/mL (≈ 1.82 µM) | 64 µg/mL (≈ 248 µM) | –
5 | CSC[C@@H](N)C1=C(C(=O)O)N2C(=O)[C@H]([C@@H](C)O)[C@H]2S1 | 0.125 µg/mL (≈ 0.411 µM) | 0.707 µg/mL (≈ 2.32 µM) | 2 µg/mL (≈ 6.57 µM) | 0.595 µg/mL (≈ 1.95 µM) | 9.19 µg/mL (≈ 30.2 µM) | 0.794 µg/mL (≈ 2.61 µM) | 2 µg/mL (≈ 6.57 µM) | 2.83 µg/mL (≈ 9.3 µM) | 0.099 µg/mL (≈ 0.325 µM) | 16 µg/mL (≈ 52.6 µM) | – | 1.33 µg/mL | – | 0.18 µg/mL (≈ 0.591 µM) | 2 µg/mL (≈ 6.57 µM) | –
6 | C[C@@H](O)[C@H]1C(=O)N2C(C(=O)O)=C(CC[C@@H](N)C(=O)O)S[C@H]12 | 1.01 µg/mL (≈ 3.19 µM) | 2.42 µg/mL (≈ 7.65 µM) | 2.52 µg/mL (≈ 7.97 µM) | 2.83 µg/mL (≈ 8.95 µM) | 18.4 µg/mL (≈ 58.1 µM) | 1 µg/mL (≈ 3.16 µM) | 4 µg/mL (≈ 12.6 µM) | 16 µg/mL (≈ 50.6 µM) | 2.08 µg/mL (≈ 6.58 µM) | 45.3 µg/mL (≈ 143 µM) | – | 4 µg/mL | – | 2.7 µg/mL (≈ 8.54 µM) | 16 µg/mL (≈ 50.6 µM) | –
7 | CSCC[C@@H](N)C1=C(C(=O)O)N2C(=O)[C@H]([C@@H](C)O)[C@H]2S1 | 0.125 µg/mL (≈ 0.393 µM) | 0.441 µg/mL (≈ 1.38 µM) | 1 µg/mL (≈ 3.14 µM) | 0.5 µg/mL (≈ 1.57 µM) | 5.28 µg/mL (≈ 16.6 µM) | 0.397 µg/mL (≈ 1.25 µM) | 0.125 µg/mL (≈ 0.393 µM) | 2.83 µg/mL (≈ 8.89 µM) | 0.07 µg/mL (≈ 0.22 µM) | 8.02 µg/mL (≈ 25.2 µM) | – | 0.13 µg/mL | – | 0.88 µg/mL (≈ 2.76 µM) | 4 µg/mL (≈ 12.6 µM) | –
8 | C[C@@H](O)[C@H]1C(=O)N2C(C(=O)O)=C(CN)S[C@H]12 | 0.5 µg/mL (≈ 2.05 µM) | 5.15 µg/mL (≈ 21.1 µM) | 8 µg/mL (≈ 32.8 µM) | 6.06 µg/mL (≈ 24.8 µM) | 8 µg/mL (≈ 32.8 µM) | 3.18 µg/mL (≈ 13 µM) | 0.5 µg/mL (≈ 2.05 µM) | – | 0.153 µg/mL (≈ 0.626 µM) | 32 µg/mL (≈ 131 µM) | – | 6.27 µg/mL | 13.4 µg/mL (≈ 55.1 µM) | 0.28 µg/mL (≈ 1.15 µM) | 4 µg/mL (≈ 16.4 µM) | –
9 | CSC[C@H](N)C1=C(C(=O)O)N2C(=O)[C@H]([C@@H](C)O)[C@H]2S1 | 0.5 µg/mL (≈ 1.64 µM) | 12.4 µg/mL (≈ 40.9 µM) | 20.2 µg/mL (≈ 66.2 µM) | 8.57 µg/mL (≈ 28.2 µM) | 97 µg/mL (≈ 319 µM) | 5.04 µg/mL (≈ 16.6 µM) | 0.25 µg/mL (≈ 0.821 µM) | 22.6 µg/mL (≈ 74.3 µM) | 0.26 µg/mL (≈ 0.854 µM) | 90.5 µg/mL (≈ 297 µM) | – | 16.3 µg/mL | – | – | 128 µg/mL (≈ 421 µM) | 0.45 µg/mL (≈ 1.48 µM)
10 | C[C@@H](O)[C@H]1C(=O)N2C(C(=O)O)=C(CSC[C@@H](N)C(=O)O)S[C@H]12 | 0.25 µg/mL (≈ 0.718 µM) | 0.284 µg/mL (≈ 0.815 µM) | 0.63 µg/mL (≈ 1.81 µM) | 0.308 µg/mL (≈ 0.884 µM) | 2 µg/mL (≈ 5.74 µM) | 0.25 µg/mL (≈ 0.718 µM) | 0.5 µg/mL (≈ 1.44 µM) | – | 0.852 µg/mL (≈ 2.45 µM) | 16 µg/mL (≈ 45.9 µM) | – | 0.51 µg/mL | 1.68 µg/mL (≈ 4.82 µM) | 1.1 µg/mL (≈ 3.16 µM) | 2 µg/mL (≈ 5.74 µM) | –
11 | C[C@@H](O)[C@H]1C(=O)N2C(C(=O)O)=C(CC[C@H](N)C(=O)O)S[C@H]12 | 2 µg/mL (≈ 6.32 µM) | 9.67 µg/mL (≈ 30.6 µM) | 16 µg/mL (≈ 50.6 µM) | 12.1 µg/mL (≈ 38.3 µM) | 55.7 µg/mL (≈ 176 µM) | 11.3 µg/mL (≈ 35.8 µM) | 8 µg/mL (≈ 25.3 µM) | 45.3 µg/mL (≈ 143 µM) | 2.33 µg/mL (≈ 7.37 µM) | 90.5 µg/mL (≈ 286 µM) | – | 17.3 µg/mL | – | 3.4 µg/mL (≈ 10.7 µM) | 64 µg/mL (≈ 202 µM) | –
12 | C[C@@H](O)[C@H]1C(=O)N2C(C(=O)O)=C(SC[C@H](N)C(=O)O)S[C@H]12 | 2.83 µg/mL (≈ 8.46 µM) | 6.46 µg/mL (≈ 19.3 µM) | 16 µg/mL (≈ 47.9 µM) | 4 µg/mL (≈ 12 µM) | 42.7 µg/mL (≈ 128 µM) | 5.28 µg/mL (≈ 15.8 µM) | 4 µg/mL (≈ 12 µM) | 17.3 µg/mL (≈ 51.7 µM) | 1.94 µg/mL (≈ 5.8 µM) | 128 µg/mL (≈ 383 µM) | – | 16 µg/mL | – | 4 µg/mL (≈ 12 µM) | – | –
13 | C[C@@H](O)[C@H]1C(=O)N2C(C(=O)O)=C([C@H](N)CCC(=O)O)S[C@H]12 | 0.25 µg/mL (≈ 0.79 µM) | 3.11 µg/mL (≈ 9.83 µM) | 6.35 µg/mL (≈ 20.1 µM) | 3.73 µg/mL (≈ 11.8 µM) | 16 µg/mL (≈ 50.6 µM) | 4 µg/mL (≈ 12.6 µM) | 2 µg/mL (≈ 6.32 µM) | 13.4 µg/mL (≈ 42.5 µM) | 0.735 µg/mL (≈ 2.32 µM) | 16 µg/mL (≈ 50.6 µM) | – | 5.4 µg/mL | – | 1 µg/mL (≈ 3.16 µM) | 16 µg/mL (≈ 50.6 µM) | –
14 | C[C@@H](N)C1=C(C(=O)O)N2C(=O)[C@H]([C@@H](C)O)[C@H]2S1 | – | 11.7 µg/mL (≈ 45.2 µM) | 10.1 µg/mL (≈ 39 µM) | 9.85 µg/mL (≈ 38.1 µM) | 55.7 µg/mL (≈ 216 µM) | 5.04 µg/mL (≈ 19.5 µM) | – | 26.9 µg/mL (≈ 104 µM) | 0.229 µg/mL (≈ 0.887 µM) | – | – | 14.3 µg/mL | – | 0.29 µg/mL (≈ 1.12 µM) | 32 µg/mL (≈ 124 µM) | –
15 | C[C@@H](O)[C@H]1C(=O)N2C(C(=O)O)=C(COC(N)=O)S[C@H]12 [RITIPENEM] | 0.06 µg/mL (≈ 0.208 µM) | 0.68 µg/mL (≈ 2.36 µM) | 3.2 µg/mL (≈ 11.1 µM) | 0.81 µg/mL (≈ 2.81 µM) | 2.3 µg/mL (≈ 7.98 µM) | 0.5 µg/mL (≈ 1.73 µM) | – | – | 0.12 µg/mL (≈ 0.416 µM) | 5.7 µg/mL (≈ 19.8 µM) | – | 1.2 µg/mL | 5.7 µg/mL (≈ 19.8 µM) | 0.16 µg/mL (≈ 0.555 µM) | 2 µg/mL (≈ 6.94 µM) | –
16 | C[C@@H](O)[C@H]1C(=O)N2C(C(=O)O)=C(SCCOC(N)=O)S[C@H]12 [Sch-34343] | 0.06 µg/mL (≈ 0.179 µM) | 0.3 µg/mL (≈ 0.897 µM) | 1.3 µg/mL (≈ 3.89 µM) | 0.35 µg/mL (≈ 1.05 µM) | 0.87 µg/mL (≈ 2.6 µM) | 0.25 µg/mL (≈ 0.748 µM) | – | – | 0.11 µg/mL (≈ 0.329 µM) | 5.7 µg/mL (≈ 17 µM) | – | 0.57 µg/mL | 4.8 µg/mL (≈ 14.4 µM) | 0.15 µg/mL (≈ 0.449 µM) | 2 µg/mL (≈ 5.98 µM) | –
